Measured values as given in patent publication US4310521A, “Aspirin-isopropylantipyrine” (Toho Pharmaceutical Co., Ltd., priority 1979, dated 1982).
Entries after “also recorded” stand apart in the source; their conditions may differ. Read-outs that look alike come from different tables or passages of the source.

Columns and labels:
rats (E. coli pyrogen) = assay: Antipyretic activity, E. coli suspension as pyrogen; format: in vivo; details: s.c., 100 mg/kg, 2 hours after pyrogen
Procedure: Rats received a sterilized E. coli suspension (1 platinum loop/2 ml saline, 0.5 ml/100 g, i.v.) as a pyrogen, and 2 hours later the test compounds were injected subcutaneously. The temperature was taken at hourly intervals before and after injection of the test compounds.

[1] = tested on: stomach, glandular portion; assay: Gastric ulcerogenic activity, pylorus-ligated rats; format: in vivo; details: for Length of Stomach Lesion (cm): pylorus-ligated rats, oral, 100 mg/kg, 7 hours
Procedure: Immediately after ligation of the pylorus of fasted rats, the test compounds were administered orally. The stomachs were removed 7 hours later, and the lengths of the lesions in the glandular portion were measured.

[2] = tested on: excised intestinal tract of rats; assay: Inhibition of induced contraction of excised intestinal tract; details: 100 μg/ml
[3] = tested on: mice (acetic acid writhings); assay: Inhibition of acetic acid-induced writhing in mice (analgetic activity); format: in vivo; details: for No. of Writhings: 30 minutes before acetic acid i.p., control 32.2 ± 3.7; for Inhibition (%): writhing, based on the control group
Procedure: The number of writhings that occurred when mice were administered an acetic acid solution intraperitoneally were counted, and the rate of inhibition based on the control group was calculated. The test compounds were administered to the mice 30 minutes before the acetic acid solution was administered.

Acute toxicity (LD 50) = format: in vivo; details: mouse, in vivo, male ddy mice
Procedure: (§1) The acute toxicity of AIA was tested using male mice (ddy, body weight 18-25 g), and the dose at which 50% of the animal population were killed (LD 50) was determined.

male mice = assay: Acute toxicity (LD 50); format: in vivo; details: male ddy mice, in words
Procedure: as §1

[4] = tested on: mouse tail (pain threshold, heat); assay: Prolongation time of pain threshold of mouse tail, D'Amour-Smith Method (analgetic activity); format: in vivo; details: mice, s.c., 200 mg/kg AIA vs 200 mg/kg aspirin, FIG. 1
Procedure: Further, the prolongation time of pain threshold of mouse tail was determined in accordance with the D'Amour-Smith Method (J. Pharmacol. Exp. Ther., 72, 74 (1941)). After the subcutaneous administration of the test compounds to mice, the tails of mice were exposed to heat and the prolongation time of pain threshold was determined.

[5] = Hygroscopicity and stability; format: physicochemical; details: in words, no test described; listed as formula (I)
Solubility = format: physicochemical
carrageenin edema = assay: Carrageenin edema of hind paw (anti-inflammatory activity); format: in vivo; details: rats, s.c., 50 and 100 mg/kg, FIG. 2, in words
Procedure: Rats were subcutaneously administered the test compounds, and 30 minutes later a carrageenin solution was administered subcutaneously to the foot pad of the rats. The volume of the hind paw was measured at prescribed intervals after the administration of the carrageenin, and the rate of increase in the volume of the paw was calculated and designated as the rate of swelling (%).

adjuvant arthritis = assay: Adjuvant arthritis (anti-inflammatory activity); format: in vivo; details: rats, 200 mg/kg per day, 21 days, FIG. 3, in words
Procedure: On the other hand, an adjuvant was administered subcutaneously to only the foot pad of the left hind paw, and 200 mg/kg per day of the test compounds were administered daily for 21 days. The rate of increase in the volume of the both hind paws were measured daily and designated as the rate of swelling (%).

[6] = tested on: stomach, glandular portion; assay: Gastric ulcerogenic activity, adjuvant-administered rats; format: in vivo; details: oral, 200 mg/kg per day, 21 days, control 0.05 ± 0.048, *P < 0.05
Procedure: On the other hand, after administering an adjuvant, the rats were orally administered […] of the test compounds per day for 21 days. On the 21st day the stomachs were removed, and the lengths of the lesions in the glandular portion were measured.

[7] = background statement on aspirin; cited from earlier work
[8] = ip, intraperitoneal, read-out: LD 50 (g/kg), Intraperitoneal administration
[9] = sc, subcutaneous, read-out: LD 50 (g/kg), Subcutaneous administration
[10] = oral, read-out: LD 50 (g/kg), Oral administration

Structure (SMILES)	Length of Stomach Lesion (cm) [1] [cm]	No. of Writhings ([3]; 50 mg/kg)	Inhibition (%) ([3]; 50 mg/kg)	No. of Writhings ([3]; 100 mg/kg)	Inhibition (%) ([3]; 100 mg/kg)	LD50 (Acute toxicity (LD 50); [8]) [g/kg]	LD50 (Acute toxicity (LD 50); [9]) [g/kg]	LD50 (Acute toxicity (LD 50); [10]) [g/kg]	Length of Stomach Lesion (cm) [6] [cm]	also measured
CC(=O)Oc1ccccc1C(=O)NCc1c(C(C)C)c(=O)n(-c2ccccc2)n1C [AIA, N-3'a-propylphenazonyl-2-acetoxybenzamide]	0.11 ± 0.09	22.1 ± 3.3	31.4	18.3 ± 1.7	43.2	3.67 ± 0.07	> 5	> 5	0.04 ± 0.031	Antipyretic activity (rats (E. coli pyrogen)): demonstrated antipyretic activity; Injury to the stomach (Tables 2A and 2B) ([1]; rats, in words, Tables 2A and 2B): little or no injury is caused to the stomach; Inhibition of contraction induced by acetylcholine ([2]; acetylcholine): inhibit the contraction; Inhibition of contraction induced by barium chloride ([2]; barium chloride): inhibit the contraction; Inhibition of contraction induced by histamine ([2]; histamine): inhibit the contraction; Analgetic activity (writhing) compared with aspirin ([3]; in words): analgetic activity comparable to that of aspirin; Acute toxicity compared with aspirin (male mice): extremely low as compared with that of aspirin; Analgetic activity (prolongation of pain threshold) compared with aspirin [4]: stronger analgetic activity than the group administered 200 mg/kg of aspirin; Hygroscopicity [5]: free of hygroscopicity; also recorded: not hygroscopic; Stability [5]: stable; also recorded: good stability; Solubility in acetone (Solubility; acetone): dissolves readily; Solubility in chloroform (Solubility; chloroform): dissolves fairly well; Solubility in ethanol (Solubility; ethanol): dissolves readily; Solubility in methanol (Solubility; methanol): dissolves readily; Solubility in water (Solubility; water): practically insoluble; Inhibition of carrageenin edema formation (carrageenin edema): has the activity of inhibiting carrageenin edema formation; Inhibitory effect on adjuvant arthritis compared with aspirin (adjuvant arthritis): inhibitory effect on adjuvant arthritis comparable to that of aspirin
CC(=O)Oc1ccccc1C(=O)O [Aspirin, acetylsalicylic acid]	4.13 ± 1.24	17.2 ± 4.0	46.6	15.3 ± 2.4	52.5	0.76 ± 0.09	1.02 ± 0.11	11.6 ± 0.07	3.29 ± 1.37	Hygroscopicity [7]: hygroscopic
